In patent US20080003684A1, “DIAGNOSTIC METHOD FOR MYOPATHY” (priority 2006, published 2008):

Assays:
human skeletal muscle [1] = assay: Gene set enrichment analysis (GSEA) of muscle microarray data; conditions: high dose statin treatment, FDR<0.25
human skeletal muscle [2] = assay: Whole genome microarray analysis in muscle biopsies, single-gene analysis; conditions: high dose statin treatment, criteria 1.5-fold change and p-value <0.05
ALOX5AP = assay: RealTime Quantitative TaqMan PCR of muscle RNA; assay type: in vivo, human; conditions: n=5, p=0.041
Procedure: (§1) Based on a hierarchical cluster analysis (described in Example 1) 20 genes were selected for further RT-PCR control in order to identify a gene expression based fingerprint for statin effect on human skeletal muscle.
(§2) The microarray expression results recorded in the simvastatin group (n=5, for one case there was not enough muscle RNA for PCR) were verified by RealTime Quantitative TaqMan PCR. Previously purified cRNA was used as starting material for cDNA synthesis. A 1000 ng-18 μl aliquote of cRNA was mixed with 1 μl Promega Random Primer (C1181, Promega U.S., Madison, Wis., USA) and incubated in +70° C. for 10 min. The following reagents were added leading to 25 μl total reaction volume: 1 μl of 10 μM dNTP blend (F09892, Applied Biosystems, Foster City, Calif., USA), 1 μl of Promega M-MLV Reverse Transcriptase 200 U/μl (M3682) and 4 μl of M-MLV RT 5× reaction buffer. Finally the incubations were performed in the following order: 10 min in RT, 50 min in 45° C., and, 10 min in 70° C. 10 μl volume was used for PCR reaction, consisting of 2 μl aliquote of 1:10 diluted cDNA sample, and, Abgene ABsolute 2×QPCR ROX mix (AB-1139, Abgene, Epsom, UK). The primer concentrations were 300 nM, probe concentrations for Universal Probe Library (Exiqon, Vedbaek, Denmark) probes 100 nM and for ordinary long probes 200 nM. Finally the PCR reactions were performed in rtPCR system (ABI Prism 7700 Sequence Detection System, Applied Biosystems) having the following PCR procedure: 95° C. for 15 min, and 40 cycles of 95° C. for 15 s and 60° C. for 1 min.

CCL5 = assay: RealTime Quantitative TaqMan PCR of muscle RNA; assay type: in vivo, human; conditions: n=5, p=0.011
Procedure: as §1, §2

COL3A1 = assay: RealTime Quantitative TaqMan PCR of muscle RNA; assay type: in vivo, human; conditions: n=5, p=0.026
Procedure: as §1, §2

MYBPH = assay: RealTime Quantitative TaqMan PCR of muscle RNA; assay type: in vivo, human; conditions: n=5, p=0.027
Procedure: as §1, §2

MYL5 = assay: RealTime Quantitative TaqMan PCR of muscle RNA; assay type: in vivo, human; conditions: n=5, p=0.021
Procedure: as §1, §2

Compound: CC(C)c1c(C(=O)Nc2ccccc2)c(-c2ccccc2)c(-c2ccc(F)cc2)n1CC[C@@H](O)C[C@@H](O)CC(=O)O [atorvastatin]
- number of pathways up-regulated / affected in GSEA (human skeletal muscle [1]): no pathways appeared to be affected significantly
- number of genes whose expression changed significantly during the intervention (human skeletal muscle [2]): five

Compound: CCC(C)(C)C(=O)O[C@H]1C[C@@H](C)C=C2C=C[C@H](C)[C@H](CC[C@@H]3C[C@@H](O)CC(=O)O3)[C@H]21 [simvastatin]
- ALOX5AP expression change by RT-PCR (ALOX5AP): +3.6 fold
- CCL5 expression change by RT-PCR (CCL5): +11.9 fold
- COL3A1 expression change by RT-PCR (COL3A1): +27.1 fold
- MYBPH expression change by RT-PCR (MYBPH): +49.0 fold
- MYL5 expression change by RT-PCR (MYL5): +8.0 fold
- number of pathways up-regulated / affected in GSEA (human skeletal muscle [1]): 143 pathways
- number of genes up-regulated (human skeletal muscle [2]): 85 genes
- number of genes whose expression changed significantly during the intervention (human skeletal muscle [2]): 111 genes
